For the test, the target named is T1, purified ITK (Invitrogen PV3875) (Homo sapiens, UniProt Q08881).
T1 construct: purchased Invitrogen PV3875
T1 sequence (Q08881 1-620): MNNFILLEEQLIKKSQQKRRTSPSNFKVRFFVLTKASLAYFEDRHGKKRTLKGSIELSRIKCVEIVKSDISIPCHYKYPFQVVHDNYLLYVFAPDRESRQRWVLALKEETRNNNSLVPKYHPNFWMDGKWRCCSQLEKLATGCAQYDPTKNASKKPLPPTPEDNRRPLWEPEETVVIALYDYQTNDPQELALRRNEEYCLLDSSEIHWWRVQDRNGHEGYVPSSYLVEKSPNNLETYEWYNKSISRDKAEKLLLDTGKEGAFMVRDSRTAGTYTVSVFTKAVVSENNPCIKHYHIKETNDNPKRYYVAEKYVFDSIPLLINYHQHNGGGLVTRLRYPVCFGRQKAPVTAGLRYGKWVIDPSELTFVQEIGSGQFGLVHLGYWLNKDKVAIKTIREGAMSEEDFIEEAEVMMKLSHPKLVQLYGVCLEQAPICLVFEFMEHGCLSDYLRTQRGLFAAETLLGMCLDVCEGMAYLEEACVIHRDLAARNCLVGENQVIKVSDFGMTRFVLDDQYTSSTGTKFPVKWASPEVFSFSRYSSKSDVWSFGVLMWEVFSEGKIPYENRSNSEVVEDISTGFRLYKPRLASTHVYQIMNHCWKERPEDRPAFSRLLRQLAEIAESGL
The test is described as follows: ITK peptide phosphorylation assay (Caliper LabChip or LCMS). It is filed as biochemical. In short, it runs like this:
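Ki values come from Morrison quadratic fits of activity versus inhibitor concentration, adjusted for ATP-competitive inhibition against ATP/Km,app. Substrate and phosphopeptide from purified ITK reactions were resolved either microfluidically (Caliper, EDTA stop) or by LC-MS MRM (TCA stop).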

[1] abbreviates: Table 2, Examples 1-140, class symbols.
Where [2] appears, read: Table 3, specific values for certain examples.

Structures are written as SMILES.

By Ki is commonly meant the equilibrium dissociation constant of an inhibitor or competing ligand from its target. Take `CN(C)Cc1ccc(Cn2cc(NC(=O)c3n[nH]c4ccccc34)cn2)cc1` [Example 115, N-(1-(4-((dimethylamino)methyl)benzyl)-1H-pyrazol-4-yl)-1H-indazole-3-carboxamide]: the Ki under setting [1] was 1 to 100 nM.
The compound `N#Cc1cccc(Cn2cc(NC(=O)c3n[nH]c4cc(N5CCCC5)ccc34)cn2)c1` [Example 86, N-(1-(3-cyanobenzyl)-1H-pyrazol-4-yl)-6-(pyrrolidin-1-yl)-1H-indazole-3-carboxamide] returned an inhibition constant Ki under setting [1] of 1 to 100 nM.
As to `Cc1cccc(Cn2cc(NC(=O)c3n[nH]c4ccccc34)cn2)c1` [Example 55, N-(1-(3-methylbenzyl)-1H-pyrazol-4-yl)-1H-indazole-3-carboxamide], the Ki under setting [1] lay in the range of 1 to 100 nM.
Take `N#Cc1ccc(Cn2cc(NC(=O)c3n[nH]c4cc(-c5cn[nH]c5)ccc34)cn2)s1` [Example 27, 6-(1H-Pyrazol-4-yl)-1H-indazole-3-carboxylic acid [1-(5-cyano-thiophen-2-ylmethyl)-1H-pyrazol-4-yl]-amide]: the Ki under setting [1] was in the range of 0.01 to 1 nM.
On to `N#Cc1cccc(Cn2cc(NC(=O)c3n[nH]c4cc(C5CCNCC5)ccc34)cn2)c1` [Example 179, N-[1-[(3-cyanophenyl)meth-yl]pyrazol-4-yl]-6-(4-piperidyl)-1H-indazole-3-carboxamide], for which the inhibitory constant (Ki) (Table 1, Examples 141-279) came to 154 nM.
With `O=C(Nc1cnn(Cc2ccccc2F)c1)c1n[nH]c2ccccc12` [Example 65, N-(1-(2-fluorobenzyl)-1H-pyrazol-4-yl)-1H-indazole-3-carboxamide], the Ki under setting [1] was 1 to 100 nM.
Still for that read-out and setting: under `COc1ccc2[nH]nc(C(=O)Nc3cnn(Cc4cccc(C#N)c4)c3)c2c1` [Example 8, N-(1-(3-cyanobenzyl)-1H-pyrazol-4-yl)-5-methoxy-1H-indazole-3-carboxamide] stands 1 to 100 nM.
For `O=C(Nc1cnn(Cc2cccc3cccnc23)c1)c1n[nH]c2cc(-c3cn[nH]c3)ccc12` [Example 9, 6-(1H-Pyrazol-4-yl)-1H-indazole-3-carboxylic acid (1-quinolin-8-ylmethyl-1H-pyrazol-4-yl)-amide], the Ki runs as follows: under setting [1], 1 to 100 nM; under setting [2], 7.42 nM.
For the compound `Cc1cc2c(C(=O)Nc3cnn(Cc4cccc(C#N)c4)c3)n[nH]c2cc1-c1cc[nH]n1` [Example 156, N-[1-[(3-cyanophenyl)meth-yl]pyrazol-4-yl]-5-methyl-6-(1H-pyrazol-3-yl)-1H-indazole-3-carboxamide], affinity (Table 1, Examples 141-279) was put at a Ki of 80.8 nM.
Compound `COc1cccc2[nH]nc(C(=O)Nc3cnn(Cc4cccc(C#N)c4)c3)c12` [Example 4, N-(1-(3-cyanobenzyl)-1H-pyrazol-4-yl)-4-methoxy-1H-indazole-3-carboxamide] displayed a Ki under setting [1] of more than 100 nM and a Ki under setting [2] of 1300 nM.
As for `N#CCn1cc(NC(=O)c2n[nH]c3cc(-c4cn[nH]c4)ccc23)cn1` [Example 260, N-[1-(cyanomethyl)py-razol-4-yl]-6-(1H-pyrazol-4-yl)-1H-indazole-3-carboxamide], the Ki (Table 1, Examples 141-279) is 11.9 nM.
Under setting [1], `O=C(Nc1cnn(Cc2ccc(Cl)cc2Cl)c1)c1n[nH]c2ccccc12` [Example 73, N-(1-(2,4-dichlorobenzyl)-1H-pyrazol-4-yl)-1H-indazole-3-carboxamide] gave a Ki of more than 100 nM.
Where the note is “Table 1, Examples 141-279”, `O=C(Nc1cnn(Cc2ccccc2)c1)c1n[nH]c2cc(-c3cnc4c(c3)CCCO4)ccc12` [Example 209, N-(1-benzylpyrazol-4-yl)-6-(3,4-dihydro-2H-pyrano[2,3-b]pyridin-6-yl)-1H-indazole-3-carboxamide] gave an inhibition constant Ki of 66.2 nM.
Under “Table 1, Examples 141-279”, `CN(C)CCC(c1cccc(Cl)c1)n1cc(NC(=O)c2n[nH]c3cc(-c4cn[nH]c4)ccc23)cn1` (stereo not shown) [Example 247, N-[1-[1-(3-chlorophenyl)-3-(dimethylami-no)propyl]pyrazol-4-yl]-6-(1H-pyrazol-4-yl)-1H-indazole-3-carboxamide] yielded a Ki of 0.127 nM.
Compound `Cc1ccc(-c2ccc3c(C(=O)Nc4cnn(Cc5cccc(C#N)c5)c4)n[nH]c3c2)cn1` [Example 120, N-(1-(3-cyanobenzyl)-1H-pyrazol-4-yl)-6-(6-methylpyridin-3-yl)-1H-indazole-3-carboxamide] gave a Ki under setting [1] of 1 to 100 nM.
Regarding `NC(=O)c1ccc(Cn2cc(NC(=O)c3n[nH]c4cc(-c5cn[nH]c5)ccc34)cn2)cc1` [Example 12, 6-(1H-Pyrazol-4-yl)-1H-indazole-3-carboxylic acid [1-(4-carbamoyl-benzyl)-1H-pyrazol-4-yl]-amide], the Ki under setting [1] was in the range of 0.01 to 1 nM.
In turn, `Cn1ccc(-c2ccc3c(C(=O)Nc4cnn(Cc5cccc(C#N)c5)c4)n[nH]c3c2)n1` [Example 203, N-[1-[(3-cyanophenyl)meth-yl]pyrazol-4-yl]-6-(1-methylpyrazol-3-yl)-1H-indazole-3-carboxamide] registered a Ki (Table 1, Examples 141-279) of 1100 nM.
Compound `CC(=O)N(C)CCC(c1ccccc1)n1cc(NC(=O)c2n[nH]c3ccccc23)cn1` (stereo not shown) [Example 266, N-[1-[3-[acetyl(methyl)a-mino]-1-phenyl-propyl]pyrazol-4-yl]-1H-indazole-3-carboxamide] registered a Ki (Table 1, Examples 141-279) of 100 nM.
With `Cn1nccc1-c1ccc2c(C(=O)Nc3cnn(Cc4cccc(C#N)c4)c3)n[nH]c2c1` [Example 196, N-[1-[(3-cyanophenyl)meth-yl]pyrazol-4-yl]-6-(2-methylpyrazol-3-yl)-1H-indazole-3-carboxamide], the Ki (Table 1, Examples 141-279) is 354 nM. This Ki is about 3.5-fold higher than that of the compound before.
In turn, `Cc1cc2c(C(=O)Nc3cnn(Cc4cccc(C#N)c4)c3)n[nH]c2cc1-c1cncc(C#N)c1` [Example 148, N-[1-[(3-cyanophenyl)meth-yl]pyrazol-4-yl]-6-(5-cyano-3-pyridyl)-5-methyl-1H-indazole-3-carboxamide] showed an inhibition constant (Ki) (Table 1, Examples 141-279) of 57.2 nM.
`CN(C)CCC(c1cccc(Cl)c1)n1cc(NC(=O)c2n[nH]c3cc(-c4cn[nH]c4)ccc23)cn1` (stereo not shown) [Example 249, N-[1-[1-(3-chlorophenyl)-3-(dimethylami-no)propyl]pyrazol-4-yl]-6-(1H-pyrazol-4-yl)-1H-indazole-3-carboxamide] displayed an inhibitory constant (Ki) (Table 1, Examples 141-279) of 0.06 nM.
With `O=C(Nc1cnn(Cc2ccc(CN3CCC3)cc2)c1)c1n[nH]c2ccccc12` [Example 103, N-(1-(4-(azetidin-1-ylmethyl)benzyl)-1H-pyrazol-4-yl)-1H-indazole-3-carboxamide], the Ki under setting [1] was in the range of 1 to 100 nM.
As for `CC1(Cn2cc(NC(=O)c3n[nH]c4cc(-c5cn[nH]c5)ccc34)cn2)COC1` [Example 253, N-[1-[(3-methyloxetan-3-yl)methyl]pyrazol-4-yl]-6-(1H-pyrazol-4-yl)-1H-indazole-3-carboxamide], the affinity (Table 1, Examples 141-279) corresponds to a Ki of 36.7 nM.
`O=C(Nc1cnn(Cc2cccc(C(F)(F)F)c2)c1)c1n[nH]c2ccccc12` [Example 59, N-(1-(3-(trifluoromethyl)benzyl)-1H-pyrazol-4-yl)-1H-indazole-3-carboxamide] displayed a Ki under setting [1] of 1 to 100 nM.
On the same count and under the same terms, with `O=C(Nc1cnn(Cc2csc(-c3cccs3)n2)c1)c1n[nH]c2cc(-c3cn[nH]c3)ccc12` [Example 23, 6-(1H-Pyrazol-4-yl)-1H-indazole-3-carboxylic acid [1-(2-thiophen-2-yl-thiazol-4-ylmethyl)-1H-pyrazol-4-yl]-amide] the figure was 1 to 100 nM.
As for `N#Cc1cccc(Cn2cc(NC(=O)c3n[nH]c4cc(C(F)(F)F)ccc34)cn2)c1` [Example 250, N-[1-[(3-cyanophenyl)meth-yl]pyrazol-4-yl]-6-(trifluoromethyl)-1H-indazole-3-carboxamide], for the setting “Table 1, Examples 141-279”, the Ki is 103 nM.

The values are drawn from US20140309210A1, “INDAZOLE COMPOUNDS, COMPOSITIONS AND METHODS OF USE THEREOF” (Genentech, Inc., priority 2011, published 2014).
